According to US11040108B2, “Amino acid- and peptide-steroid conjugates and use thereof” (BRANDEIS UNIVERSITY, priority 2016, dated 2021):
pIC50: −log10 of the molar value. ≈ marks a conversion by molar mass, not a printed value. Where two headings read alike, the source gives them in different places.

What was measured:
[1] = system: HeLa, A2780cis, OVASHO, MES-SA/dx5 and Saos-2 cells; assay: NBD visualization of nano-aggregates in cancer cell lines (CLSM); type: cell-based; settings: 25 μM; 11a in all five cell lines, 11b in OVASHO and MES-SA/dx5
Procedure: Different cancer cells at the density of 1.5×10^5 were seeded onto 3.5 cm confocal dish. After the growth of cells in cell incubator for 24 h, 11a (or 11b) at 25 μM was added to the above solution with completed medium. At designated times, PBS was used to wash cells 3 times for 1 minute. Hoechst 33342 was used to stain cell nucleus for 10 minutes, and cells were then washed using live cell imaging solution 3 times for 1 minute. Cells were maintained in live cell imaging solution, and CLSM was carried out immediately. The excitation of wavelength was 488 nm, and the emission was 500 nm to 596 nm.

[2] = TEM of assemblies in aqueous solution; type: physicochemical; settings: 1.0 wt %; for diameter of assemblies on direct dissolution in water: without ALP, 1b spheres-like vesicle, 2b nanoribbon
Procedure: Sample solution (5 sufficient to cover the grid surface) was placed on the grid. Approximately 10 sec later, sample was rinsed by placing a large drop of the ddH2O on parafilm and allowing the grid to touch the water drop, with the sample-loaded surface facing the parafilm. The grid was tilted and water was gently absorbed from the edge of the grid using a filter paper sliver. This procedure was repeated 3 times. Immediately after rinsing, the staining was conducted by placing a large drop of the uranyl acetate (UA) stain solution on parafilm and allowing the grid to touch the stain solution drop, with the sample-loaded surface facing the parafilm. The grid was tilted and the stain solution was gently absorbed from the edge of the grid using a filter paper sliver. Next, the grid was allowed to dry in air and the grid was examined as soon as possible.
To further understand the inhibitory activity of 1a, transmission electron microscopy (TEM) was used to confirm the EISA of 1b. […] In contrast, uniform nanofibers (diameter of 10±2 nm) formed after the addition of ALP (1 U/mL) into the solution of 1a (FIG. 3B). The resulted nanofibers entangled with each other to result in a viscous solution. […] But the direct dissolution of 2b (1.0 wt %) provided an aqueous solution containing nanoribbon with the diameter of 17±2 nm and in several hundred nanometer length (FIG. 4B). These observations, collectively, confirmed that enzymatic reaction modulated the morphology of the assemblies of the cholesterol conjugates, which partially contributed to the different inhibitory activities of 1a, 1b, 2a, and 2b. That is, being exposed to the cancer cell, 1a (or 2a) turns into 1b (or 2b), a process catalyzed by the extra- or intracellular enzymes of the cancer cells; the resulting 1b (or 2b) self-assembled to form nanoscale assemblies that result in death of the cancer cell.

HeLa cells = assay: MTT assay, cytotoxicity against HeLa; type: cell-based, human; settings: for pIC50: Homo sapiens, HeLa, 48 h, read-out: IC50 against HeLa cell
Procedure: (§1) HeLa, Saos-2, HS-5, HepG2, T98G, and A2780 cells were purchased from American-type Culture Collection (ATCC, USA). A2780cis cell was purchased from Sigma. HeLa cells, HepG-2 cells, and T98G cells were cultured in MEM Medium supplemented with 10% v/v fetal bovine serum, 100 U/mL penicillin, and 100 μg/mL streptomycin. Saos-2 cells were cultured in McCoy's 5a Medium (for Saos-2) supplemented with 15% v/v fetal bovine serum, 100 U/mL penicillin, and 100 μg/mL streptomycin. HS-5 cells were cultured in Dulbecco's Modified Eagle's medium (DMEM) supplemented with 10% v fetal bovine serum (FBS), 100 U/mL penicillin, and 100 μg/mL streptomycin. A2780cis cells were cultured in RPMI 1640 Medium supplemented with 10% v/v fetal bovine serum, 100 U/mL penicillin, and 100 μg/mL streptomycin (cisplatin only necessary every 2-3 passages). All cells were maintained at 37° C. in a humidified atmosphere of 5% CO2.
(§2) An MTT assay was used to test the cytotoxicity. All different cell lines were seeded in 96-well plates at 1×10^5 cells/well for 24 hours followed by removal of the culture medium and subsequent addition of culture medium containing different concentrations of the precursors. At designated time (24/48/72 hours), 10 μL MTT solution (5 mg/mL) was added to each well and incubated at 37° C. for another 4 hours, and then 100 μL of SDS-HCl solution was added to stop the reduction reaction and dissolve the purple formazan. The absorbance of each well at 595 nm was measured by a multimode microplate reader. The cytotoxicity assay was performed three times and the average value of the three measurements was taken.
To confirm that assemblies of the cholesterol conjugate are able to inhibit other cancer cell lines, 1a was incubated with HeLa cells, a widely studied malignant cervical cancer cell line.

A2780cis cells = assay: MTT assay, cytotoxicity against A2780cis; type: cell-based, human
Procedure: as §1, §2
The activity of conjugate 1a against a platinum-resistant, ovarian cancer cell line (A2780cis) (Behrens et al., “Characterization of a Cis-Diamminedichloroplatinum(Ii)-Resistant Human Ovarian Cancer Cell Line and its Use in Evaluation of Platinum Analogues,” Cancer Res. 47:414 (1987); Masuda et al., “Increased DNA Repair as a Mechanism of Acquired Resistance to Cis-Diamminedichloroplatinum (II) in Human Ovarian Cancer Cell Lines,” Cancer Res. 48:5713 (1988), which are hereby incorporated by reference in their entirety) was first examined. To assess the efficacy of conjugate 1a, the assay was carried out in parallel using the known, clinically used cytotoxic agent, cisplatin.

A2780 cell line = assay: Cell viability of unstimulated or selected A2780 cell line (acquired resistance); type: cell-based; settings: after five weeks treatment with gradually increased concentrations; 24, 48, 72 h
Procedure: as §2
The activity of 1a against non-drug resistant cancer cells was assessed using the A2780 cell line.

[3] = system: HS-5 cell line (human bone marrow stroma cell line); assay: MTT assay, cell viability of HS-5; type: cell-based; settings: 12.5 μM, 48 hours (FIG. 5A)
Procedure: as §1, §2
To verify the selectivity of 1a against cancer cells, the HS-5 cell line (human bone marrow stroma cell line) was used; HS-5 hardly overexpresses ALP on cell surface. […] To further confirm that ALP on cell surface (i.e., as an ectophosphatase) contributed to the inhibitory activity of 1a, A2780cis were incubated with 1a and ALP (1 U/mL).
Additional cell viability assays were carried out using conjugates 1a and 1b, optionally with 3, against HepG2 human liver carcinoma cells, Saos-2 osteosarcoma cells, T98G glioblastoma cells, HS-5 (normal bone marrow stromal cells), A2780 ovarian cancer cells (parental line to A2780cis), and Kuramochi ovarian cancer cells. Conjugate 1a was particularly effective against ovarian and cervical cancer cells.

[4] = 48 hours (FIG. 9A), unit inferred
[5] = read-out: IC50 against A2780cis, 72 hours
[6] = concentration of 100 μM (FIG. 10)

CC(C)CCC[C@@H](C)C1CC[C@H]2[C@@H]3CC=C4CC(OC(=O)NC(Cc5ccc(O)cc5)C(=O)N[C@H](CCCCNc5ccc([N+](=O)[O-])c6nonc56)C(=O)O)CC[C@]4(C)[C@H]3CC[C@]12C (stereo partly drawn) [11b, cholesterol-y-(NBD)k]
presence of nano-aggregates in or on treated cells [1]: confirmed presence of nano-aggregates

CC(C)CCC[C@@H](C)C1CC[C@H]2[C@@H]3CC=C4CC(OC(=O)NC(Cc5ccc(OP(=O)(O)O)cc5)C(=O)N[C@H](CCCCNc5ccc([N+](=O)[O-])c6nonc56)C(=O)O)CC[C@]4(C)[C@H]3CC[C@]12C (stereo partly drawn) [11a, cholesterol-(phospho)y-(NBD)k]
presence of nano-aggregates in or on treated cells [1]: confirmed presence of nano-aggregates

CC(C)CCC[C@@H](C)C1CC[C@H]2[C@@H]3CC=C4CC(OC(=O)NC(Cc5ccc(O)cc5)C(=O)O)CC[C@]4(C)[C@H]3CC[C@]12C (stereo partly drawn) [2b, Cholesterol-L-Tyr]
diameter of assemblies on direct dissolution in water [2]: 17±2 nm
pIC50 (HeLa cells; [4]): 4.23
pIC50 (A2780cis cells; [5]): 4.44

CC(C)CCC[C@@H](C)C1CC[C@H]2[C@@H]3CC=C4CC(OC(=O)NC(Cc5ccccc5)C(=O)O)CC[C@]4(C)[C@H]3CC[C@]12C (stereo partly drawn) [compound 3, Cholesterol-D-Phe]
effect on HeLa cells (HeLa cells; [6]): innocuous
effect on A2780cis cells (A2780cis cells; [6]): innocuous

N.N.[Cl][Pt][Cl] [cisplatin, reference compound]
inhibition of A2780 and acquired drug resistance (A2780 cell line): caused platinum-resistance
IC50 against A2780cis (A2780cis cells; 48 hours): 21.2 µg/mL
IC50 against A2780cis (A2780cis cells; 72 hours): 12.2 µg/mL
pIC50 (A2780cis cells; 72 hours, read-out: IC50 against A2780cis): 4.39

CC(C)CCC[C@@H](C)C1CC[C@H]2[C@@H]3CC=C4CC(OC(=O)NC(Cc5ccc(OP(=O)(O)O)cc5)C(=O)O)CC[C@]4(C)[C@H]3CC[C@]12C (stereo partly drawn) [2a, Cholesterol-(phospho)L-Tyr]
morphology in aqueous solution without ALP ([2]; pH 7.4): disorder aggregates
diameter of nanofibers formed after addition of ALP ([2]; pH 7.4, ALP 1 U/mL, 24 hours): 15±2 nm
pIC50 (HeLa cells; [4]): 4.36
IC50 against A2780cis (A2780cis cells; 72 hours): 15.2 µg/mL (≈ 22.6 µM)
pIC50 (A2780cis cells; [5]): 4.66

CC(C)CCC[C@@H](C)C1CC[C@H]2[C@@H]3CC=C4CC(OC(=O)NC(Cc5ccc(O)cc5)C(=O)O)CC[C@]4(C)[C@H]3CC[C@]12C (stereo partly drawn) [1b, Cholesterol-D-Tyr]
diameter of assemblies on direct dissolution in water [2]: 25±2 nm
cell viability / proliferation of HS-5 [3]: hardly inhibited
pIC50 (HeLa cells): 4.05
cell viability / proliferation of A2780cis (A2780cis cells; 12.5 μM, 48 hours (FIG. 5A)): hardly inhibited
pIC50 (A2780cis cells; Homo sapiens, A2780cis, 72 h, read-out: IC50 against A2780cis, 72 hours): 4.30
